Counter-ions that a name gives are not always drawn. Like-named read-outs stand apart in the source and are kept apart here.
Columns and labels:
Assay type in all cases: cell-based
[1] = target: EGFR(D770_N771insSVD) expressing Ba/F3 stable cell line (Homo sapiens, UniProt P00533, DUP768-770, cells depend on it); assay: Cellular proliferation (Alamar Blue) assay, EGFR D770_N771insSVD Ba/F3; settings: 72 hr, read-out: D770 IC50
Outline: (§1)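 Ba/F3 stable lines (15,000 cells/well, RPMI + 10% FBS) seeded 16–18 h, then treated 72 h at 37 °C with compound, final 10–0.0005 μM in 3-fold dilutions. Viability read by Alamar Blue after 3 h incubation.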

[2] = target: EGFR (A767_dupASV) expressing Ba/F3 stable cell line (Homo sapiens, UniProt P00533, DUP767-769, cells depend on it); assay: Cellular proliferation (Alamar Blue) assay, EGFR A767_dupASV Ba/F3; settings: 72 hr, read-out: A767 IC50
Outline: as §1

A431 cells = assay: Cellular proliferation (Alamar Blue) assay, A431; settings: Homo sapiens
[3] = target: EGFR (H773insNPH) expressing Ba/F3 stable cell line (Homo sapiens, UniProt P00533, DUP771-773, cells depend on it); assay: Cellular proliferation (Alamar Blue) assay, EGFR H773insNPH Ba/F3; settings: 72 hr, read-out: NPH IC50
Description: • 1. EGFR(D770_N771insSVD) expressing Ba/F3 stable cell line • 2. EGFR (A767_dupASV) expressing Ba/F3 stable cell line • 3. A431 cells • 4. EGFR (H773insNPH) expressing Ba/F3 stable cell line • 5. HER2 (A775_G776insYVMA) expressing Ba/F3 stable cell line Assay Procedure: • 1. Seed cells at 5000 for A431 and 15,000 cells for Ba/F3 in 100 μL/well in complete media (for A431: DMEM with […] and for Ba/F3 cells: RPMI with 10% FBS) in 96-well tissue culture plate. Leave outer wells without cells for background measurements. Incubate at 37 degree Celsius in […] humidified incubator for 16-18 hours. • 2. Add 0.025 ml of 5× concentration compound dilution or DMSO control. Final compound concentration range is 10-0.0005 μM prepared in 3-fold serial dilutions. Incubate for 72 hr at 37 degree Celsius in […] humidified incubator. • 3. Add 0.0125 ml Alamar Blue™ reagent to each well with multi-channel pipette and tap gently on each side of the plate to mix. Incubate for 3 hours at 37 degree Celsius in 5% CO2 humidified incubator. • 4. […] Data analysis was performed using XLfit 5.5.0.5.

[4] = target: HER2 (A775_G776insYVMA) expressing Ba/F3 stable cell line (Homo sapiens, UniProt P04626, DUP772-775, cells depend on it); assay: Cellular proliferation (Alamar Blue) assay, HER2 A775_G776insYVMA Ba/F3; settings: 72 hr, read-out: YVMA IC50
Outline: as §1

[5] = A-431, A431 cells, Alamar Blue, 72 hr, read-out: A431 IC50

EGFR(D770_N771insSVD) expressing Ba/F3 stable cell line, sequence (P00533 with tags, fused parts or gaps DUP768-770): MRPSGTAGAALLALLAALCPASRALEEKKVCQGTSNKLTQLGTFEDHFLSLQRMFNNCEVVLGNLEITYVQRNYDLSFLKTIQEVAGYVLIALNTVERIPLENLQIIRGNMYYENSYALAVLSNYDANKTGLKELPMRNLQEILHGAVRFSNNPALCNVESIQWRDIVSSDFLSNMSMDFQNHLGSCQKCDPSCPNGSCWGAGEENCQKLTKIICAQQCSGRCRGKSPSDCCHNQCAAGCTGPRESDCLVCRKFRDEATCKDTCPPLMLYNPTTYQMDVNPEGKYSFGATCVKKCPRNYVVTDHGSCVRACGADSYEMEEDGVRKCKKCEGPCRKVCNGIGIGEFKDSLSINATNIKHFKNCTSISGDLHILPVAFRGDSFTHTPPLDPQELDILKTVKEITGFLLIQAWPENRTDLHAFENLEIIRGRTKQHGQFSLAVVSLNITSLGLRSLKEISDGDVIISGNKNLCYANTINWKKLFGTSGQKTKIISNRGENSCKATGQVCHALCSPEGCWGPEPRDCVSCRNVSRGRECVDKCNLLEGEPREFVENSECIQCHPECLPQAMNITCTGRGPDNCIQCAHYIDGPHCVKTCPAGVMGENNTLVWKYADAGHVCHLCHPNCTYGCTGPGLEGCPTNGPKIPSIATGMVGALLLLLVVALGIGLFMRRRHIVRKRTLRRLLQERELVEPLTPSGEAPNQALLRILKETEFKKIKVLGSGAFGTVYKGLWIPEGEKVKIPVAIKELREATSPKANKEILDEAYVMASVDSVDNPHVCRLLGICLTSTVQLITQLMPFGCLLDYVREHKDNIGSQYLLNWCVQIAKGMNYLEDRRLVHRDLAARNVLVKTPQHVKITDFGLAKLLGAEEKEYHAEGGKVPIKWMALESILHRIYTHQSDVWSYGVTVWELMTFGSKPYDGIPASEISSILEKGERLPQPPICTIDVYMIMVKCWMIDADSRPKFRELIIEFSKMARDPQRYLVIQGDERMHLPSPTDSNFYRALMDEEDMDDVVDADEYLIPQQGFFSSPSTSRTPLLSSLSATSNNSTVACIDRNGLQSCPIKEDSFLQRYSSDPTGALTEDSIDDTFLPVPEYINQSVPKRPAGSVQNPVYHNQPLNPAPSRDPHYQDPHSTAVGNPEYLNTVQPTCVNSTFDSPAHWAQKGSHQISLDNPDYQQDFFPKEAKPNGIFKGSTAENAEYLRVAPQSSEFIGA
HER2 (A775_G776insYVMA) expressing Ba/F3 stable cell line, sequence (P04626 with tags, fused parts or gaps DUP772-775): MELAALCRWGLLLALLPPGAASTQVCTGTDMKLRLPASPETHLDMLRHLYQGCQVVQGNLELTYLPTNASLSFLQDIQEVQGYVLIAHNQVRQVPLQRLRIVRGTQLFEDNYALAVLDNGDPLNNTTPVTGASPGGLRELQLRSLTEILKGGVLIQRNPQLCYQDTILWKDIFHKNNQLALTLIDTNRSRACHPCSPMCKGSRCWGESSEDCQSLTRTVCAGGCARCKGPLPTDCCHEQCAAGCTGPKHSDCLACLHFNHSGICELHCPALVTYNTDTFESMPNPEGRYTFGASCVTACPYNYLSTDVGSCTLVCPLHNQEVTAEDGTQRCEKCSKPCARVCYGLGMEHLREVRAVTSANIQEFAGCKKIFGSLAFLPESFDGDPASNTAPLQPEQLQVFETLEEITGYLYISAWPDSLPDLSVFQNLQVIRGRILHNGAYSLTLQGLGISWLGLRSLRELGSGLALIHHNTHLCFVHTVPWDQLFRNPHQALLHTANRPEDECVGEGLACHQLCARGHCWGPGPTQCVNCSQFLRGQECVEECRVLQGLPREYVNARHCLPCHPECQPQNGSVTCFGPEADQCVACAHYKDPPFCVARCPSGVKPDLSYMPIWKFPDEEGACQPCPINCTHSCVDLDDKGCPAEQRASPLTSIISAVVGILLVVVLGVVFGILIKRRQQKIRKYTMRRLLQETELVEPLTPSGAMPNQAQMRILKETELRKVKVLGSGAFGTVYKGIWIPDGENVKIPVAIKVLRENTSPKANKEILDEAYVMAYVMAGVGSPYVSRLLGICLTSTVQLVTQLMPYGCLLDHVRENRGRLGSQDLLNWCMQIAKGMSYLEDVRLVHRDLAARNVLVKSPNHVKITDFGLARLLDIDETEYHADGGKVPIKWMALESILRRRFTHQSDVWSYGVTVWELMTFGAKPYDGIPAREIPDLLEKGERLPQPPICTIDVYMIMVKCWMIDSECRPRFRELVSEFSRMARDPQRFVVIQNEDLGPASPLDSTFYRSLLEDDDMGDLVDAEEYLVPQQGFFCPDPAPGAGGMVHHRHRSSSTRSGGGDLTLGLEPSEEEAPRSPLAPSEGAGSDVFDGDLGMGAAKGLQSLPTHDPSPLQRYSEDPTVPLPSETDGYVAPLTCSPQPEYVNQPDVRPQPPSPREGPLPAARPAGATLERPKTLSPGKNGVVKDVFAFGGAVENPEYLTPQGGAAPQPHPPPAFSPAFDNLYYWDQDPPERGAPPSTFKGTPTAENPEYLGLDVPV
EGFR (A767_dupASV) expressing Ba/F3 stable cell line, sequence (P00533 with tags, fused parts or gaps DUP767-769): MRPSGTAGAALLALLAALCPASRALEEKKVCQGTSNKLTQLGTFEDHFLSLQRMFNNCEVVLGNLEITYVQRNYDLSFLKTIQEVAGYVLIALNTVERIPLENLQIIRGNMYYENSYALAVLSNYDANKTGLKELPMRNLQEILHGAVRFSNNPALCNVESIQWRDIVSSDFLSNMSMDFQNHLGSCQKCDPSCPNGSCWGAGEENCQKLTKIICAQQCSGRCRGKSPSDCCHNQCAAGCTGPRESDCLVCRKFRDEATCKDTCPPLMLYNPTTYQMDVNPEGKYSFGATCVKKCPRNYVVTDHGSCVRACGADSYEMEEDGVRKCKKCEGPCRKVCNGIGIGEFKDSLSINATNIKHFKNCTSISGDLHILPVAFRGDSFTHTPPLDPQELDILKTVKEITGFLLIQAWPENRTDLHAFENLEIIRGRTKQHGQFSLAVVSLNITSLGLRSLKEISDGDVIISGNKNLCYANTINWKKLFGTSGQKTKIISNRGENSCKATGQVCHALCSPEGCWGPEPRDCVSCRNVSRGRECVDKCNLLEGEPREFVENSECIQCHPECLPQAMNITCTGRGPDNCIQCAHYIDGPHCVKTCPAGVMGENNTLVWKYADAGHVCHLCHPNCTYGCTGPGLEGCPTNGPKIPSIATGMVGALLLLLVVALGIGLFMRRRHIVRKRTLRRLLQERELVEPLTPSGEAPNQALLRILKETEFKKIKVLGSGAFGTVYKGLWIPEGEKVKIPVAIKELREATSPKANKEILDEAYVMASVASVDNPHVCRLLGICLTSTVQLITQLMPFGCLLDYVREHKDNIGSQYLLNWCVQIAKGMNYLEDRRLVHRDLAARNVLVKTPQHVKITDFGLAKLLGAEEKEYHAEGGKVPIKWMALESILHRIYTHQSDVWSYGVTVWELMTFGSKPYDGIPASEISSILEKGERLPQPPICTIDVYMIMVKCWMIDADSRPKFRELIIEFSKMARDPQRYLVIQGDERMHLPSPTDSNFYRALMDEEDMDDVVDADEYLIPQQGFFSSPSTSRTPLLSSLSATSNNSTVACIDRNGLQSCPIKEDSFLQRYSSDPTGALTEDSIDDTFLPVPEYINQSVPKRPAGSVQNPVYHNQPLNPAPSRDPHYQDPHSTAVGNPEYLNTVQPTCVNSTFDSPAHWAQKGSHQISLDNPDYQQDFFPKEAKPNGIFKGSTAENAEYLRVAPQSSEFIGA
EGFR (H773insNPH) expressing Ba/F3 stable cell line, sequence (P00533 with tags, fused parts or gaps DUP771-773): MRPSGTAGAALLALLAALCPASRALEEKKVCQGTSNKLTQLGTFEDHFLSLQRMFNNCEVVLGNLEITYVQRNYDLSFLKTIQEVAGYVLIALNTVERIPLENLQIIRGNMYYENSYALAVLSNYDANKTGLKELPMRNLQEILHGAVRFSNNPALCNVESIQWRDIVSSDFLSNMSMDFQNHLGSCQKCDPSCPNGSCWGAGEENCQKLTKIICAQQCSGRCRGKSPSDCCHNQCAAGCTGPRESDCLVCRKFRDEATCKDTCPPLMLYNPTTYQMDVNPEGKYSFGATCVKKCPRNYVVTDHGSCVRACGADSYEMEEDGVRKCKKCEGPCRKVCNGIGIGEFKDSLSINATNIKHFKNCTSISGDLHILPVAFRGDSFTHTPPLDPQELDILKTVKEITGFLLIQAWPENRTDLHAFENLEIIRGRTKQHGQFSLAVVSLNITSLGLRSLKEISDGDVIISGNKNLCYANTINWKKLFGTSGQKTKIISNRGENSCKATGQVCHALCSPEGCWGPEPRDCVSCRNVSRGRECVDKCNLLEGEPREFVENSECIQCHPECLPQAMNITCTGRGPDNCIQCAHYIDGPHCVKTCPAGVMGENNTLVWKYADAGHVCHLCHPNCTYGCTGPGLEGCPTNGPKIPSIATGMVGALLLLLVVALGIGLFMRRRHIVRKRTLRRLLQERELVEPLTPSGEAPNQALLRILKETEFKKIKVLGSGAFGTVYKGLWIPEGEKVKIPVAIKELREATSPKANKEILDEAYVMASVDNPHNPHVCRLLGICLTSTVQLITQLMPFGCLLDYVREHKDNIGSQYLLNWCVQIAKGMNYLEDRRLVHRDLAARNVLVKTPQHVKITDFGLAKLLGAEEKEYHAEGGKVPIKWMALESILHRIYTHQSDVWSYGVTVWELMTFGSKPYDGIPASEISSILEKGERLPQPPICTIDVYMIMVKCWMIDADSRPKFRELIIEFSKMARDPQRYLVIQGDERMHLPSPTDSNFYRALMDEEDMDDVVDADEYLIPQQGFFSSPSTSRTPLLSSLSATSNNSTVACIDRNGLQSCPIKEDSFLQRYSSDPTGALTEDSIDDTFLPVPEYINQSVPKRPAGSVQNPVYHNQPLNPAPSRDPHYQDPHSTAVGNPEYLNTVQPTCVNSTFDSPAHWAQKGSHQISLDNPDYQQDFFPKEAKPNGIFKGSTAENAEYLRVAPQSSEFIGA

Row | Compound | GI50 [1] | GI50 [2] | IC50 (A431 cells; [5]) | GI50 [3] | GI50 [4] | IC50 (A431 cells; A-431, 72 h, read-out: A431 IC50 (nM))
1 | C=CC(=O)Nc1ccc(F)c(Nc2nc(Nc3cnn(CCN(C)C)c3)ncc2-c2ccc(C(F)(F)F)cc2)c1 [Compound 72, N-(3-((2-((1-(2-(dimethylamino)ethyl)-1H-pyrazol-4-yl)amino)-5-(4-(trifluoromethyl)phenyl)pyrimidin-4-yl)amino)-4-fluorophenyl)acrylamide trifluoroacetate] | 0.099 µM | 0.108 µM | 80 nM | 0.095 µM | 0.129 µM | 
2 | C=CC(=O)Nc1cccc(Nc2nc(Nc3cnn(C)c3)ncc2-c2ccc(C(F)(F)F)nc2)c1 [Compound 73, N-(3-((2-((1-methyl-1H-pyrazol-4-yl)amino)-5-(6-(trifluoromethyl)pyridin-3-yl)pyrimidin-4-yl)amino)phenyl)acrylamide] | 0.039 µM | 0.045 µM | 252 nM | 0.1 µM | 0.113 µM | 
3 | C=CC(=O)Nc1cccc(Nc2nc(Nc3cnn(C)c3)ncc2-c2ccc(F)nc2)c1 [Compound 74, N-(3-((5-(6-fluoropyridin-3-yl)-2-((1-methyl-1H-pyrazol-4-yl)amino)pyrimidin-4-yl)amino)phenyl)acrylamide] | 0.036 µM | 0.038 µM | 236 nM | 0.043 µM | 0.07 µM | 
4 | C=CC(=O)Nc1ccc(F)c(Nc2nc(Nc3cnn(C)c3)ncc2-c2ccc(Br)cc2)c1 [Compound 75, N-(3-((5-(4-bromophenyl)-2-((1-methyl-1H-pyrazol-4-yl)amino)pyrimidin-4-yl)amino)-4-fluorophenyl)acrylamide trifluoroacetate] | 0.035 µM | 0.074 µM | 37 nM | 0.043 µM | 0.1 µM | 
5 | C=CC(=O)Nc1ccc(F)c(Nc2nc(Nc3cnn(CCO)c3)ncc2-c2ccc(C(F)(F)F)cc2)c1 [Compound 78, N-(4-fluoro-3-((2-((1-(2-hydroxyethyl)-1H-pyrazol-4-yl)amino)-5-(4-(trifluoromethyl)phenyl)pyrimidin-4-yl)amino)phenyl)acrylamide] | 0.084 µM | 0.093 µM | > 10000 nM | 0.053 µM | 0.266 µM | 
6 | C=CC(=O)Nc1ccc(F)c(Nc2nc(Nc3cnn(C)c3)ncc2-c2ccnc(F)c2)c1 [Compound 82, N-(4-fluoro-3-((5-(2-fluoropyridin-4-yl)-2-((1-methyl-1H-pyrazol-4-yl)amino)pyrimidin-4-yl)amino)phenyl)acrylamide] | 0.038 µM | 0.103 µM | 590 nM | 0.057 µM | 0.226 µM | 
7 | C=CC(=O)Nc1ccc(F)c(Nc2nc(Nc3cnn(C)c3)ncc2-c2ccnc(C(F)(F)F)c2)c1 [Compound 83, N-(4-fluoro-3-((2-((1-methyl-1H-pyrazol-4-yl)amino)-5-(2-(trifluoromethyl)pyridin-4-yl)pyrimidin-4-yl)amino)phenyl)acrylamide] | 0.061 µM | 0.088 µM | 53 nM | 0.051 µM | 0.255 µM | 
8 | C=CC(=O)Nc1ccc(F)c(Nc2nc(Nc3cnn(C)c3)ncc2-c2cccnc2)c1 [Compound 84, N-(4-fluoro-3-((2-((1-methyl-1H-pyrazol-4-yl)amino)-5-(pyridin-3-yl)pyrimidin-4-yl)amino)phenyl)acrylamide] | 0.064 µM | 0.083 µM |  | 0.05 µM | 0.119 µM | 191 nM
9 | C=CC(=O)Nc1ccc(F)c(Nc2nc(Nc3cnn(C4CCN(C)CC4)c3)ncc2-c2ccc(C(F)(F)F)cc2)c1 [Compound 85, N-(4-fluoro-3-((2-((1-(1-methylpiperidin-4-yl)-1H-pyrazol-4-yl)amino)-5-(4-(trifluoromethyl)phenyl)pyrimidin-4-yl)amino)phenyl)acrylamide] | 0.109 µM | 0.249 µM | 5440 nM | 0.119 µM | 0.378 µM | 
10 | C=CC(=O)Nc1ccc(F)c(Nc2nc(Nc3cn(C)nc3F)ncc2-c2ccc(C(F)(F)F)cc2)c1 [Compound 87, N-(4-fluoro-3-((2-((3-fluoro-1-methyl-1H-pyrazol-4-yl)amino)-5-(4-(trifluoromethyl)phenyl)pyrimidin-4-yl)amino)phenyl)acrylamide] | 0.171 µM | 0.239 µM | 97 nM | 0.234 µM | 0.413 µM | 
11 | C=CC(=O)Nc1ccc(F)c(Nc2nc(Nc3cnn(C)c3)ncc2-c2cccc(F)c2)c1 [Compound 88, N-(4-fluoro-3-((5-(3-fluorophenyl)-2-((1-methyl-1H-pyrazol-4-yl)amino)pyrimidin-4-yl)amino)phenyl)acrylamide] | 0.035 µM | 0.048 µM | 929 nM | 0.049 µM | 0.198 µM | 
12 | C=CC(=O)Nc1ccc(F)c(Nc2nc(Nc3cnn(C)c3)ncc2-c2cccc(C(F)(F)F)c2)c1 [Compound 89, N-[4-fluoro-3-({2-[(1-methyl-1H-pyrazol-4-yl)amino]-5-[3-(trifluoromethyl)phenyl]pyrimidin-4-yl}amino)phenyl]prop-2-enamide] | 0.101 µM | 0.106 µM | 84 nM | 0.058 µM | 0.665 µM | 
13 | C=CC(=O)Nc1ccc(F)c(Nc2nc(Nc3cnn(C)c3)ncc2-c2ccccc2F)c1 [Compound 90, N-(4-fluoro-3-((5-(2-fluorophenyl)-2-((1-methyl-1H-pyrazol-4-yl)amino)pyrimidin-4-yl)amino)phenyl)acrylamide] | 0.103 µM | 0.237 µM | 320 nM | 0.103 µM | 0.358 µM | 
14 | C=CC(=O)Nc1ccc(F)c(Nc2nc(Nc3cnn(C)c3)ncc2-c2ccc(OC)cc2)c1 [Compound 91, N-(4-fluoro-3-((5-(4-methoxyphenyl)-2-((1-methyl-1H-pyrazol-4-yl)amino)pyrimidin-4-yl)amino)phenyl)acrylamide] | 0.062 µM | 0.108 µM | 950 nM | 0.091 µM | 0.479 µM | 
15 | C=CC(=O)Nc1ccc(F)c(Nc2nc(Nc3cnn(C)c3)ncc2-c2ccc(OC(F)(F)F)cc2)c1 [Compound 92, N-(4-fluoro-3-((2-((1-methyl-1H-pyrazol-4-yl)amino)-5-(4-(trifluoromethoxy)phenyl)pyrimidin-4-yl)amino)phenyl)acrylamide] | 0.102 µM | 0.075 µM | 133 nM | 0.089 µM | 0.612 µM | 
16 | C=CC(=O)Nc1ccc(F)c(Nc2nc(Nc3cnn(C)c3)ncc2-c2ccccc2)c1 [Compound 93, N-(4-fluoro-3-((2-((1-methyl-1H-pyrazol-4-yl)amino)-5-phenylpyrimidin-4-yl)amino)phenyl)acrylamide] | 0.121 µM | 0.315 µM | > 10000 nM | 0.148 µM | 0.465 µM | 
17 | C=CC(=O)Nc1ccc(F)c(Nc2nc(Nc3cnn(C)c3)ncc2-c2ccc(N3CCOCC3)cc2)c1 [Compound 94, N-(4-fluoro-3-((2-((1-methyl-1H-pyrazol-4-yl)amino)-5-(4-morpholinophenyl)pyrimidin-4-yl)amino)phenyl)acrylamide] | 0.542 µM | 0.109 µM | > 10000 nM | 0.448 µM | 1.27 µM | 
18 | C=CC(=O)Nc1ccc(F)c(Nc2nc(Nc3cnn(C)c3)ncc2-c2cncc(OC(F)F)c2)c1 [Compound 95, N-(3-((5-(5-(difluoromethoxy)pyridin-3-yl)-2-((1-methyl-1H-pyrazol-4-yl)amino)pyrimidin-4-yl)amino)-4-fluorophenyl)acrylamide] | 0.038 µM | 0.027 µM | 102 nM | 0.045 µM | 0.101 µM | 
19 | C=CC(=O)Nc1ccc(F)c(Nc2nc(Nc3cnn(C)c3)ncc2-c2ccc(C(F)F)cc2)c1 [Compound 99, N-(3-((5-(4-(difluoromethyl)phenyl)-2-((1-methyl-1H-pyrazol-4-yl)amino)pyrimidin-4-yl)amino)-4-fluorophenyl)acrylamide] | 0.037 µM | 0.096 µM | 67 nM | 0.075 µM | 0.171 µM | 
20 | C=CC(=O)Nc1ccc(F)c(Nc2nc(Nc3cnn(C)c3)ncc2-c2ccc(F)nc2)c1 [Compound 100, N-(4-fluoro-3-((5-(6-fluoropyridin-3-yl)-2-((1-methyl-1H-pyrazol-4-yl)amino)pyrimidin-4-yl)amino)phenyl)acrylamide] | 0.038 µM | 0.072 µM | 472 nM | 0.053 µM | 0.203 µM | 
